According to publication PMC10878086, “An RNA replicon system to investigate promising inhibitors of feline coronavirus” (Journal of Virology, 2024):
Several values for one entry are separate records, joined by “and”; a condition that tells them apart may be missing. Identical values can stand only once. Entries after “also recorded” stand apart in the source; their conditions may differ. Counter-ions that a name gives are not always drawn. Like-named read-outs stand apart in the source and are kept apart here.

Experiments:
[1] = system: serotype I FCoV replicon RNA in BHK-F-Rep cells; experiment: microbe, parasite or virus in culture; format: cell-based, feline coronavirus (serotype I FECV field strain); conditions: for IC50: BHK-F-Rep cells, median GFP intensity
Method: The BHK-F-Rep cells would specifically allow the evaluation of inhibitors that target viral replication, which includes basic processes such as RNA synthesis and viral polyprotein processing. […] GFP expression was assessed by flow cytometry. […] In addition to GFP detection, immunofluorescence staining of the N-protein was performed as a control of the replication inhibition in an inhibitor experiment (Fig. 2D).
For each inhibitor test, the BHK-F-Rep was cultured in T75 or T150 flasks, washed once with PBS, cells detached with Gibco TrypLE Express (Trypsin; Thermo Fisher Scientific), and then seeded in 12-well plates (25,000 cells/well) in 1 mL/well of cell-culture medium (MEM +10% FBS +50 U/mL Pen/Strep). Directly after seeding, the inhibitor was added to the cells. The plates were incubated for 96 hours at 37°C with 5% CO2.
To assess the GFP expression in BHK and Fcwf-4 cells, the supernatant was removed, the cells were washed once with PBS and then detached with trypsin and transferred to a 96-well plate. The plate was centrifuged at 1,700 rpm for 5 minutes and the supernatant discarded. Cells were once washed again with PBS and again centrifuged at 1,700 rpm for 5 minutes and the supernatant was discarded. For the replicon conditions, the cells were then stained with the LIVE/DEAD Fixable Aqua Dead Cell Stain Kit for 405 nm excitation (Invitrogen) according to the manufacturer’s instructions. As the dead cell control, one of the samples was placed at 60°C for 20 minutes and then stained. After staining, the cells were washed with PBS and centrifuged (1,700 rpm for 5 minutes), and the supernatant was discarded. For the Fcwf-4 cells infected with the recFCoV-GFP, the staining and washing step was not performed. Then, all the cells were washed with PBS before being resuspended in 200 µL PBS and transferred to Falcon 5 mL round-bottom tubes with cell strainer cap (Corning Incorporated) and kept in the dark on ice. Samples were acquired in Cytek Aurora with SpectroFlo Software Version 3.1.0 and analyzed using FlowJo software (FlowJo_v108.1).
Instead, to monitor inhibition, we determined the percent of GFP-positive cells. In either case, the median intensity of the GFP signal or the percentage of GFP-positive cells was normalized to the measurements of untreated conditions, by defining the untreated results of each triplicate as 100%. The value was then subtracted by 100 to get the value representing the percentage of inhibition.
All conditions were tested in triplicates on three different days always including a negative control. Statistical analysis and generation of graphs were performed using GraphPad Prism version 9.3.1 for Windows. The same as CC50, 50% inhibitory concentration (IC50) was determined in GraphPad Prism version 9.3.1 for Windows.

[2] = In vitro cytotoxicity assay (CytoTox-Glo) on BHK-F-Rep cells; format: cell-based, hamster; conditions: hamster
Method: (§1) To define cytotoxic concentrations of the individual inhibitors, cytotoxicity assay with the CytoTox-Glo Cytotoxicity Assay (Promega) was performed according to the manufacturer’s instructions. As a positive control, 75 µg/well of cycloheximide was used. The inhibitors were diluted in DMSO to concentrations so that 2 µL/well could be added to reach the tested concentrations. For luminescence detection, a Hidex Sense with the HidexPlateReader Software 1.0.0 was used. Detection parameters were set for luminescence detection with an infrared cutoff of 1 second. As described by Promega, the difference of viable vs dead cells was calculated in Microsoft Excel 2016, and 50% of cytotoxic concentration (CC50) was determined in GraphPad Prism version 9.3.1 for Windows. The data were fitted to a nonlinear regression curve with log(inhibitor) vs normalized response with variable slope.

[3] = system: BHK-F-Rep cells; experiment: as above; format: cell-based, hamster
Method: as §1

[4] = system: recFCoV-GFP (serotype I FIPV strain Black); experiment: Inhibitor test with recFCoV-GFP-infected Fcwf-4 cells, flow cytometry of GFP-positive cells; format: cell-based, feline infectious peritonitis virus; conditions: read-out: IC50 recFCoV-GFP flow cytometry
Source text: (§2) Finally, we assessed GC376 and Remdesivir individually or in combination in a virus infection system. We used the previously described recombinant recFCoV-GFP that is based on the laboratory-adapted serotype I FIPV strain Black and contains the GFP gene as a replacement for the accessory genes 3a–c ([39]). Using this virus, we could measure inhibition by assessing GFP expression or by virus titration. However, the assessment of GFP expression by measuring the median fluorescent intensity, as we did for BHK-F-rep cells, was not possible since recFCoV-GFP-infected Felis catus whole fetus 4 (Fcwf-4) cells died before the reduction of GFP expression was observable. Instead, we determined the number of GFP-positive cells to monitor inhibition (Fig. 5A through C). In parallel, we determined the virus titers released into the cell culture supernatant from inhibitor-treated and infected cells (Fig. 5A through C). […] The results are shown in Fig. 5C and can be compared with Fig. 4A (BHK-F-Rep inhibition) and IC50 values for the different experimental systems are shown in Table 2. […]
To assess the GFP expression in BHK and Fcwf-4 cells, the supernatant was removed, the cells were washed once with PBS and then detached with trypsin and transferred to a 96-well plate. […] Samples were acquired in Cytek Aurora with SpectroFlo Software Version 3.1.0 and analyzed using FlowJo software (FlowJo_v108.1). […]

[5] = system: recFCoV-GFP (serotype I FIPV strain Black); experiment: Inhibitor test with recFCoV-GFP-infected Fcwf-4 cells, viral titers in supernatant (TCID50); format: cell-based, feline infectious peritonitis virus; conditions: read-out: IC50 recFCoV-GFP viral titers
Source text: as §2
All conditions were tested in triplicates on three different days always including a negative control. […] The selectivity index (SI) was calculated in Microsoft Excel 2016 as follows: SI = CC50/IC50.

[6] = Cell viability testing in recFCoV-GFP infected Fcwf-4 cells; format: cell-based; conditions: cat (Felis catus)
Source text: Read-out as with the BHK-F-Rep cells done via flow cytometry and detection of GFP-positive cells (relative Inhibition) including IC50 values are shown in black with the left y-axis. As with the BHK-F-Rep cells, data shown on cell viability testing in the recFCoV-GFP infected Fcwf-4 cells are shown in black with the right y-axis including CC50 values. Additional data on viral titers of the recFCoV-GFP infected Fcwf-4 cells treated with the inhibitors and corresponding IC50 values are shown in red. The black and red lines in the graphs represent the mean value of the data collected from three independent experiments of individual drugs or their combination, respectively. The gray and red shaded areas represent the standard error of the mean.
To define cytotoxic concentrations of the individual inhibitors, cytotoxicity assay with the CytoTox-Glo Cytotoxicity Assay (Promega) was performed according to the manufacturer’s instructions. As a positive control, 75 µg/well of cycloheximide was used. […] For luminescence detection, a Hidex Sense with the HidexPlateReader Software 1.0.0 was used. Detection parameters were set for luminescence detection with an infrared cutoff of 1 second. As described by Promega, the difference of viable vs dead cells was calculated in Microsoft Excel 2016, and 50% of cytotoxic concentration (CC50) was determined in GraphPad Prism version 9.3.1 for Windows. […]

[7] = Alphacoronavirus 1, 96 h, 96 hours, flow cytometry

With `CCN(CC)Cc1cc(Nc2ccnc3cc(Cl)ccc23)ccc1O` [Amodiaquine, Amodiaquine dihydrochloride] the “inhibitory effect on BHK-F-Rep cells” value ([1]; 96 hours, flow cytometry, in words) was “did not observe an inhibitory effect; also recorded: did not show any inhibitory effect”, the IC50 [1, 7] was over 40000 nM and the CC50 [2] was 47.2 µM.

With `CC(C)C[C@H](NC(=O)OCc1ccccc1)C(=O)N[C@@H](C[C@@H]1CCNC1=O)C(O)S(=O)(=O)[O-].[Na+]` (stereo partly drawn) [GC376] the “GFP expression of BHK-F-Rep cells after treatment (replicon-cured cell line)” value ([1]; two consecutive treatments of 96 hours with 20 µM) was “undetectable”.

With `CC(C)C[C@H](NC(=O)OCc1ccccc1)C(=O)N[C@@H](CC1CCNC1=O)C(O)S(=O)(=O)O` (stereo partly drawn) [GC376] the IC50 ([1]; 96 hours, flow cytometry, read-out: IC50) was < 1000 nM and 990 nM, the CC50 [3] was over 200 µM and the IC50 ([4]; Fcwf-4 cells, MOI 0.01, 48 hours, GFP-positive cells) was 840 nM. It also gave an IC50 ([5]; Fcwf-4 cells, MOI 0.01, 48 hours, TCID50 of supernatant) of 1010 nM.

In the case of `CCC(CC)COC(=O)[C@H](C)N[P@](=O)(OC[C@H]1O[C@@](C#N)(c2ccc3c(N)ncnn23)[C@H](O)[C@@H]1O)Oc1ccccc1` [Remdesivir], the CC50 [2] is reported as 99.1 µM, the IC50 ([4]; Alphacoronavirus 1, 48 h) is reported as 1150 nM and the IC50 ([5]; Alphacoronavirus 1, 48 h) is reported as 1500 nM. The CC50 at 48 h [6] was over 200 µM.

`CC(C)(C)[C@H](NC(=O)C(F)(F)F)C(=O)N1C[C@H]2[C@@H]([C@H]1C(=O)N[C@H](C#N)C[C@@H]1CCNC1=O)C2(C)C` [Nirmatrelvir] gave an IC50 [1, 7] of under 1000 nM, an IC50 ([1]; 96 hours, flow cytometry) of 780 nM and a CC50 [2] of over 200 µM.
